In general, IC50 refers to the concentration at which inhibition is half-maximal.

Results on 21 compounds are retold here after patent US9079913B2, “Spiro-oxindole MDM2 antagonists” (The Regents of the University of Michigan, priority 2009, dated 2015).

Each structure is given as a SMILES string. Read-outs that look alike come from different tables or passages of the source.

For assay [1], the system named is Isogenic HCT-116 colon cancer cell lines. The experiment in a line: cells. It is filed as cell-based.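 Further: cells grown in 96-well plates in McCoy's 5A medium with 10% FBS, exposed to compound for 4 days.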
Method: Cells were seeded in 96-well flat bottom cell culture plates at a density of 2−3×10^3 cells/well with compounds and incubated for 4 days.
Assay [2] concerns the target recombinant human His-tagged MDM2 protein (residues 1-118) (Homo sapiens (Human), UniProt Q00987). Nature of the assay: Fluorescence-polarization MDM2 binding assay.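 Further: fluorescence polarization read after three hours of incubation in potassium phosphate buffer containing bovine gamma globulin and Triton X-100.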 Conditions: Table 19B; read-out: Binding affinities to MDM2 protein as determined by FP based assay IC50.
Assay [3] deals with cancer cell lines with wild-type p53 / mutated or deleted p53 (ATCC). The experiment in a line: Cell growth assay (WST-8), other cancer cell lines. It is filed as cell-based. In general terms: Tetrazolium assays rely on reduction of a dye to a coloured formazan, in cell work by metabolically active cells.
The mark [4] stands for this setting: Homo sapiens, HCT-116, read-out: Inhibition of cell growth IC50, HCT116 p53 KO, Table 19B, HCT116 p53 KO.
The mark [5] stands for this setting: Homo sapiens, HCT-116, read-out: Inhibition of cell growth IC50, HCT116 p53 WT, Table 19B, HCT116 p53 WT.
Where [6] appears, read: Homo sapiens, LNCaP, Table 19B, LNCaP cells, read-out: Inhibition of cell growth IC50, LNCaP.
The mark [7] stands for this setting: Homo sapiens, PC-3, Table 19B, PC3 cells, read-out: Inhibition of cell growth IC50, PC3.
Setting [8] is: read-out: Inhibition of cell growth IC50, HCT116 p53 KO, Table 19B, HCT116 p53 KO.
Where [9] appears, read: read-out: Inhibition of cell growth IC50, HCT116 p53 WT, Table 19B, HCT116 p53 WT.
Setting [10] is: Table 19B, LNCaP cells, read-out: Inhibition of cell growth IC50, LNCaP.
[11] abbreviates: Table 19B, PC3 cells, read-out: Inhibition of cell growth IC50, PC3.

Chain of recombinant human His-tagged MDM2 protein (residues 1-118) (Q00987 1-118): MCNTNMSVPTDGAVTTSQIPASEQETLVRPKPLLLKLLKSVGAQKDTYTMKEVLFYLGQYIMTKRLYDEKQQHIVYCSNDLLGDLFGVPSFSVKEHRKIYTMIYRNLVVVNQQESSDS

On to `O=C(NCC[C@H](O)CO)[C@@H]1N[C@H](CC2CCCCC2)[C@]2(C(=O)Nc3cc(Cl)c(F)cc32)[C@H]1c1cccc(Cl)c1` [MI-716A], for which the IC50 in assay [1] (setting [4]) was over 10 µM; in assay [1] (setting [5]), 1 ± 0.5 µM; in assay [2], under 3 µM; in assay [3] (setting [6]) it was 1.1 ± 0.5 µM; in assay [3] (setting [7]), 11.5 ± 0.5 µM.
Take `O=C(NCC[C@H](O)CO)[C@@H]1N[C@H](CC2CCCCC2)[C@]2(C(=O)Nc3cc(Cl)c(F)cc32)[C@H]1c1cccc(Cl)c1` [MI-716B]: the IC50 in assay [1] (setting [8]) was 11.5 ± 0.7 µM; in assay [1] (setting [9]), 0.6 ± 0.2 µM; in assay [2], under 1 µM; in assay [3] (setting [10]) it was 0.86 ± 0.3 µM; in assay [3] (setting [11]), 9 ± 2.8 µM.
For the compound `O=C(NCC[C@H](O)CO)[C@@H]1N[C@H](CC2CCCCC2)[C@]2(C(=O)Nc3cc(Cl)c(F)cc32)[C@H]1c1cccc(Cl)c1` [MI-716C], the IC50 in assay [1] (setting [8]) was 12 ± 3.4 µM; in assay [1] (setting [9]) it was 0.7 ± 0.2 µM; in assay [2], under 1 µM; in assay [3] (setting [10]), 0.8 ± 0.1 µM; in assay [3] (setting [11]), 8 ± 2 µM.
For `CN1[C@@H](C(=O)NCC[C@H](O)CO)[C@H](c2cccc(Cl)c2)[C@@]2(C(=O)Nc3cc(Cl)c(F)cc32)[C@H]1CC(C)(C)C` [MI-717], the IC50 in assay [1] (setting [8]) was 47.8 ± 1.4 µM; in assay [1] (setting [9]), 2.2 ± 0.1 µM; in assay [2], over 3 µM; in assay [3] (setting [10]) it was 2.7 ± 0.6 µM; in assay [3] (setting [11]), 31.5 ± 1.4 µM.
For the compound `CN1[C@@H](C(=O)NCC[C@H](O)CO)[C@H](c2cccc(Cl)c2F)[C@@]2(C(=O)Nc3cc(F)c(F)cc32)[C@H]1CC(C)(C)C` [MI-718], the IC50 in assay [1] (setting [4]) was 47.2 ± 5 µM; in assay [1] (setting [5]), 3 ± 1.1 µM; in assay [2] it was over 3 µM; in assay [3] (setting [6]), 3.7 ± 0.3 µM; in assay [3] (setting [7]), 34.2 ± 0.4 µM.
For the compound `CC(C)(C)C[C@@H]1[C@]2(C(=O)Nc3cc(Cl)c(F)cc32)[C@@H](c2cccc(Cl)c2)[C@H](C(=O)NCC[C@H](O)CO)[N+]1(C)C` [MI-719], the IC50 in assay [1] (setting [4]) is over 100 µM; in assay [1] (setting [5]), 58.6 ± 14.9 µM; in assay [2], over 10 µM; in assay [3] (setting [6]), 51.2 µM; in assay [3] (setting [7]) it was over 100 µM.
As to `CCC(C)(C)C[C@H]1N[C@@H](C(=O)NCC[C@H](O)CO)[C@H](c2cccc(Cl)c2)[C@@]12C(=O)Nc1cc(Cl)c(F)cc12` [MI-720], the IC50 in assay [1] (setting [4]) is 19.5 ± 5.6 µM; in assay [1] (setting [5]) it was 0.69 µM; in assay [2] it was under 1 µM; in assay [3] (setting [6]), 0.76 ± 0.1 µM; in assay [3] (setting [7]), 15.2 ± 3.2 µM.
For the compound `CC(C)(C)C[C@H]1N[C@@H](C(=O)NCCN2CCOCC2)[C@H](c2cccc(Cl)c2F)[C@@]12C(=O)Nc1cc(F)c(F)cc12` [MI-721], the IC50 in assay [1] (setting [4]) is 18.4 ± 5.4 µM; in assay [1] (setting [5]), 1.5 ± 0.3 µM; in assay [2], under 3 µM; in assay [3] (setting [6]), 1.4 µM; in assay [3] (setting [7]), 15.2 ± 1.4 µM.
`CCC(C)(C)C[C@H]1N(C)[C@@H](C(=O)NCC[C@H](O)CO)[C@H](c2cccc(Cl)c2F)[C@@]12C(=O)Nc1cc(F)c(F)cc12` [MI-723]: the IC50 was 51.3 µM in assay [1] (setting [4]); 2.42 µM in assay [1] (setting [5]); under 5 µM in assay [2]; 2.3 µM in assay [3] (setting [6]); 24.7 µM in assay [3] (setting [7]).
As to `CCCCC(C)(C)C[C@H]1N[C@@H](C(=O)NCC[C@H](O)CO)[C@H](c2cccc(Cl)c2)[C@@]12C(=O)Nc1cc(Cl)c(F)cc12` [MI-724], the IC50 is 5.3 ± 0.3 µM in assay [1] (setting [4]); 1.1 ± 0.5 µM in assay [1] (setting [5]); under 1 µM in assay [2]; 1.2 ± 0.4 µM in assay [3] (setting [6]); 3.9 ± 0.2 µM in assay [3] (setting [7]).
In the same order, the values of `CC(C)CC(C)(C)C[C@H]1N[C@@H](C(=O)NCC[C@H](O)CO)[C@H](c2cccc(Cl)c2)[C@@]12C(=O)Nc1cc(Cl)c(F)cc12` [MI-725] are 5.8 ± 2.9 µM, 0.7 µM, under 1 µM, 0.8 ± 0.1 µM and 4.7 ± 1 µM.
In the same order, the values of `CC(C)CC(C)(C)C[C@H]1N(C)[C@@H](C(=O)NCC[C@H](O)CO)[C@H](c2cccc(Cl)c2)[C@@]12C(=O)Nc1cc(Cl)c(F)cc12` [MI-726] are 8 ± 0.8 µM, 2.3 ± 0.8 µM, under 5 µM, 2.3 ± 0.3 µM and 5.1 ± 1.4 µM.
Take `CC(C)(C)C[C@H]1N[C@@H](C(=O)NCC[C@H](O)CO)[C@H](c2cccc(Cl)c2)[C@@]12C(=O)Nc1c(Cl)cccc12` [MI-727]: the IC50 in assay [1] (setting [4]) was 20.9 ± 1.1 µM; in assay [1] (setting [5]) it was 24.1 ± 0.7 µM; in assay [2], over 10 µM; in assay [3] (setting [6]) it was 12.2 ± 0.5 µM; in assay [3] (setting [7]), 21.4 ± 4.8 µM.
As to `CCCCC(C)(C)C[C@H]1N(C)[C@@H](C(=O)NCC[C@H](O)CO)[C@H](c2cccc(Cl)c2)[C@@]12C(=O)Nc1cc(Cl)c(F)cc12` [MI-728], the IC50 in assay [1] (setting [4]) is 16.9 ± 5.6 µM; in assay [1] (setting [5]), 4 ± 0.8 µM; in assay [2], under 5 µM; in assay [3] (setting [6]), 2.1 ± 0.1 µM; in assay [3] (setting [7]), 7.1 ± 2 µM.
For the compound `CCCC(C)(C)C[C@H]1N[C@@H](C(=O)NCC[C@H](O)CO)[C@H](c2cccc(Cl)c2)[C@@]12C(=O)Nc1cc(Cl)c(F)cc12` [MI-729], the IC50 in assay [1] (setting [4]) is 8.9 ± 0.1 µM; in assay [1] (setting [5]) it was 0.8 ± 0.2 µM; in assay [2] it was under 1 µM; in assay [3] (setting [6]), 1 µM; in assay [3] (setting [7]), 6.1 ± 1.6 µM.
In the case of `CC(C)CC(C)(C)C[C@H]1N[C@@H](C(=O)NCCN2CCOCC2)[C@H](c2cccc(Cl)c2F)[C@@]12C(=O)Nc1cc(F)c(F)cc12` [MI-730], the concentration for half-maximal inhibition (IC50) was 7.8 ± 0.7 µM in assay [1] (setting [4]); 1.4 ± 0.3 µM in assay [1] (setting [5]); under 1 µM in assay [2]; 1.7 ± 0.5 µM in assay [3] (setting [6]); 6.3 ± 1.4 µM in assay [3] (setting [7]).
In the same order, the values of `CC(C)CC(C)(C)C[C@H]1N[C@@H](C(=O)NCC[C@H](O)CO)[C@H](c2cccc(Cl)c2F)[C@@]12C(=O)Nc1cc(Cl)c(F)cc12` [MI-731] are 6.4 ± 1.7 µM, 0.9 ± 0.5 µM, under 1 µM, 0.8 ± 0.5 µM and 5.6 ± 1.9 µM.
Consider `CC(C)CC(C)(C)C[C@H]1N[C@@H](C(=O)NCC[C@H](O)CO)[C@H](c2cccc(Cl)c2F)[C@@]12C(=O)Nc1cc(F)c(F)cc12` [MI-732], for which the IC50 in assay [1] (setting [4]) is 10.2 ± 4.8 µM; in assay [1] (setting [5]), 0.7 ± 0.1 µM; in assay [2] it was under 1 µM; in assay [3] (setting [6]), 0.7 µM; in assay [3] (setting [7]), 5.8 µM.
Regarding `CC(C)CC(C)(C)C[C@H]1N(C)[C@@H](C(=O)NCC[C@H](O)CO)[C@H](c2cccc(Cl)c2F)[C@@]12C(=O)Nc1cc(Cl)c(F)cc12` [MI-733], the IC50 in assay [1] (setting [4]) is 8.7 ± 0.9 µM; in assay [1] (setting [5]), 2.4 ± 0.3 µM; in assay [2] it was over 1 µM; in assay [3] (setting [6]), 2.2 ± 0.5 µM; in assay [3] (setting [7]) it was 5.4 ± 1.7 µM.
In the same order, the values of `CC(C)CC(C)(C)C[C@H]1N(C)[C@@H](C(=O)NCC[C@H](O)CO)[C@H](c2cccc(Cl)c2F)[C@@]12C(=O)Nc1cc(F)c(F)cc12` [MI-734] are 8.2 ± 3.5 µM, 5.5 ± 2.1 µM, over 5 µM, 3.7 ± 1.1 µM and 7.4 ± 1.8 µM.
Turning to `CC(C)CC(C)(C)C[C@H]1N[C@@H](C(=O)NCC[C@H](O)CO)[C@H](c2cccc(Cl)c2)[C@@]12C(=O)Nc1cc(F)c(F)cc12` [MI-735], the IC50 is 8.5 ± 1.1 µM in assay [1] (setting [4]); 1.2 ± 0.3 µM in assay [1] (setting [5]); under 1 µM in assay [2]; 1.1 ± 0.4 µM in assay [3] (setting [6]); 8.6 ± 0.9 µM in assay [3] (setting [7]).
